The source made the active and inactive calls. How the calls were made is not given here. Where only a bound is given, the exact number is not on record here.

The results in this text go back to PubChem BioAssay AID449750 (Broad Institute, 2010).

The assay in a line: non-covalent RecA intein splicing inhibitors, dose response, biochemical, cell-free, fluorescence, secondary screen (AID 449750).
Take `CCOc1cc(/C=C2/C(=N)N3C(=NC2=O)SN=C3S(=O)(=O)C(C)C)ccc1OC(=O)c1ccco1`: the AC50 – broadly, the midpoint of the concentration-response curve, whichever way the signal moves – was > 38 µM (inactive).
With `Cc1noc(C)c1CSCC(=O)Oc1ccc(N(C)S(=O)(=O)c2ccccc2)cc1` the figure was > 38 µM (inactive); with `O=C(Nc1nc(-c2ccccc2)cs1)c1ccccc1NS(=O)(=O)c1ccc(F)cc1`, 8.16 µM.
Next, `CC(=O)N(Cc1ccc(F)cc1)C1=C(NCCc2ccccc2)C(=O)c2ccccc2C1=O`: 7.58 µM.
Regarding `O=C(Oc1cccc(OC(=O)c2ccco2)c1)c1ccco1`, the AC50 was 5.11 µM.
With `Cc1ccc(-c2nnc(Sc3nc4ccccc4o3)c3ccccc23)cc1` the figure was 4.13 µM; with `CC1=NN(c2ccc(C(=O)O)cc2)C(=O)/C1=C\c1ccc(OC(=O)c2cccs2)cc1`, 2.25 µM; with `CCc1ccc(S(=O)(=O)/N=C2\C=C(Nc3cccc(C(=O)O)c3)C(=O)c3ccccc32)cc1`, 0.353 µM.
Next, `CCOC(=O)c1c(C)[nH]c2c1-c1ccccc1C(=O)C2=O`: 5.39 µM; `CC(C)=CCC1=C(OCC(=O)O)C(=O)c2ccccc2C1=O`: 10.3 µM.
With `CC(=O)Nc1ccccc1NC(=O)C/C(C)=N/NC(=O)C(=O)N1CCCCC1` the figure was > 38 µM (inactive); with `Cc1nn(Cc2ccccc2)c2c1C(c1ccco1)C(C#N)=C(N)O2` (stereo not drawn), > 38 µM (inactive).
In the case of `[O-]C1=N/[N+](=C/c2ccccc2)CC1`, the AC50 is > 38 µM (inactive).
With `CN1CCc2nc(SCC(=O)Nc3ccc(F)cc3)c(C#N)cc2C1` the figure was > 38 µM (inactive); with `COc1cc(C(c2c(C)[nH][nH]c2=O)c2c(C)[nH][nH]c2=O)ccc1OS(=O)(=O)c1ccc(C)cc1`, 8.13 µM; with `CC1=NN(c2ccc(S(=O)(=O)O)cc2C)C(=O)C1`, 6.31 µM.
For the molecule `O=C(NCc1cccnc1)/C(=C\c1ccc(-c2ccc(Br)cc2)o1)S(=O)(=O)c1ccccc1`, the AC50 was 24.7 µM.
As for `Oc1cc(O)c2c(c1)O[C@H](c1ccc(O)c(O)c1)[C@H](O)C2`, the AC50 is > 38 µM (inactive).
Next, `O=c1[nH]c(Nc2ccccn2)cc2ccccc12`: > 38 µM (inactive); `CC(=O)N(C1CC(C)C(C#N)(C#N)C1(C#N)C#N)N(C)C` (stereo not drawn): > 38 µM (inactive).
With `O=C(CSc1nnc(Cc2ccccc2)o1)Nc1cccc(F)c1` the figure was > 38 µM (inactive).
Next, `CCCc1[nH]nc2c1C(c1ccccc1OC)C(C#N)=C(N)O2` (stereo not drawn): > 38 µM (inactive).
With `Cc1[nH][nH]c(=O)c1C(c1ccc(-c2ccccc2C(=O)O)o1)c1c(C)[nH][nH]c1=O`, the AC50 was 3.19 µM.
With `CCc1[nH]nc2c1C(Cc1ccccc1)C(C#N)=C(N)O2` (stereo not drawn) the figure was > 38 µM (inactive).
With `Cc1cc(=O)n(-c2ccc(O)cc2)[nH]1` the figure was 7.46 µM; with `O=C1/C(=C/Nc2cccc([N+](=O)[O-])c2)CCc2ccccc21`, > 38 µM (inactive); with `Nc1scc2c(C(=O)N/N=C/c3ccc(Cl)cc3)nn(-c3ccccc3)c(=O)c12`, 28.1 µM.
For the molecule `O=[N+]([O-])c1ccc(N2CCCC(C(F)(F)F)C2)c2ccncc12` (stereo not drawn), the AC50 is > 38 µM (inactive).
Next, `COc1nc(N/N=C/c2ccc(-c3ccccc3[N+](=O)[O-])o2)nc(N2CCOCC2)n1`: 23.2 µM; `CCc1ccc(/C=C/C(=O)C2C(=O)c3ccccc3C2=O)cc1`: 7.06 µM.
For `O=C1c2cc(F)ccc2-n2c1nc1ccccc1c2=O`, the AC50 is > 38 µM (inactive).
With `COCc1[nH]nc2c1C1(CCSCC1)C(C#N)=C(N)O2` the figure was > 38 µM (inactive); with `COc1ccc(OC)c(C2C(C#N)=C(N)Oc3c2c(C)nn3-c2ccc(C)cc2)c1` (stereo not drawn), 31.1 µM.
With `O=C(c1c[nH]c(C(=O)C(Cl)(Cl)Cl)c1)c1ccc(F)cc1Cl` the figure was 30.1 µM; with `COC(=O)[C@@H]1C[C@]2(OC(=O)c3ccccc3)C=CC(=O)C[C@@H]2N1C(=O)OCc1ccccc1`, 24.5 µM; with `CC1=NN(c2ccccc2)C(=O)/C1=C/c1ccc(Cl)cc1`, 4.65 µM.
Next, `O=C1C=C(N(CCO)Cc2ccccc2)c2ccccc2C1=O`: 4.49 µM; `CCOc1cc(NC2CS(=O)(=O)CC2O)c(OCC)cc1NC(=O)c1ccccc1` (stereo not drawn): > 38 µM (inactive); `C/C(CC(=O)NCc1ccco1)=N\NC(=O)c1ccc([N+](=O)[O-])cc1Cl`: > 38 µM (inactive).
In the case of `CCc1ccc(S(=O)(=O)/N=C2\C=C(Nc3ccc(C(=O)O)cc3)C(=O)c3ccccc32)cc1`, the AC50 is 0.348 µM.
As to `O=C1C(Nc2ccccc2)=C(N2CCCCC2)C(=O)c2ccccc21`, the AC50 is 12.6 µM.
For the molecule `Cc1[nH]n(-c2ccccc2)c(=O)c1/C=C1/C=c2ccccc2=N1`, the AC50 is > 38 µM (inactive).
As to `O=C(c1ccc(Cl)cc1)c1c[nH]c(C(=O)C(Cl)(Cl)Cl)c1`, the AC50 was 16.6 µM.
Turning to `Cc1ccc(CNC(=O)c2ccc(N(C)S(=O)(=O)c3ccccc3)cc2)cc1`, the AC50 is > 38 µM (inactive).
With `CC(C)c1[nH]nc2c1C(c1ccco1)C(C#N)=C(N)O2` (stereo not drawn) the figure was > 38 µM (inactive); with `Cc1ccc(-n2nc(C)c3c2OC(N)=C(C#N)C3c2ccc(C)o2)cc1` (stereo not drawn), 8.87 µM; with `O=C(CCCN1C(=O)/C(=C/c2ccccc2)SC1=S)Nc1ccc(C(=O)O)c(O)c1`, 33.8 µM.
Next, `O=C1CCCC2=C1C(c1ccc3c(c1)OCO3)c1c([nH]n(-c3ccccc3)c1=O)N2` (stereo not drawn): 6.7 µM; `Cc1ccsc1C=Nc1ccc(O)cc1`: > 38 µM (inactive); `CCCc1ccc(/C=C2\C(=O)c3ccccc3C(O)=C2C(=O)OCC)cc1`: 8.63 µM.
For `CC(=O)N(C)Cc1ccc(C(=O)CCl)cc1`, the AC50 was > 38 µM (inactive).
Next, `O=C(CCN1C(=O)/C(=C/c2cccs2)SC1=S)Nc1ccc(C(=O)O)c(O)c1`: 19 µM; `CN1CCN(c2ccc([N+](=O)[O-])c3no[n+]([O-])c23)CC1`: > 38 µM (inactive); `[O-]C1=N/[N+](=C/c2ccccc2Cl)CC1`: > 38 µM (inactive).
Regarding `COc1ccc(N(C(=O)CCl)C(C(=O)NCCc2ccccc2)c2cccs2)cc1` (stereo not drawn), the AC50 was 0.958 µM.
Next, `CCc1nnc(NS(=O)(=O)c2ccc(NC(=S)NC(=O)/C=C/c3ccc(C(C)C)cc3)cc2)s1`: 5.98 µM; `S=C(Nc1ccc2nsnc2c1)N1CCCCCC1`: 9.37 µM; `Nc1ccc2nc[nH]c2c1`: 10.6 µM.
Next, `CC(=O)N1CC2(c3ccccc3)CN(C(C)=O)CC(c3ccccc3)(C1)C2=O`: > 38 µM (inactive); `COc1ccc(C(=O)Nc2ccncc2)cc1[N+](=O)[O-]`: > 38 µM (inactive); `O=C(Cc1ccccc1F)Nc1nc2ccccc2[nH]1`: > 38 µM (inactive).
With `O=C(c1cccc(C(F)(F)F)c1)C1CCCN(Cc2ncc[nH]2)C1` (stereo not drawn) the figure was > 38 µM (inactive).
For `Cc1ccc(N2C(=O)C(Cl)=C(NCCO)C2=O)c(C)c1`, the AC50 was > 38 µM (inactive).
With `CCOC(=O)c1c(NC(=O)CCl)sc(CN(C)C)c1-c1ccccc1` the figure was 20.4 µM; with `CC(C)c1nnc(NC(=O)c2nc(S(=O)(=O)Cc3ccccc3)ncc2Cl)s1`, 15 µM; with `Cc1nc2c(=O)n(C)c(=O)nc-2n(C)n1`, 0.0855 µM.
With `CS(=O)(=O)c1ncc(Cl)c(C(=O)Nc2ccc(N3CCOCC3)cc2)n1` the figure was > 38 µM (inactive).
With `Cc1[nH][nH]c(=O)c1C(c1ccc(Br)cc1)c1c(C)[nH][nH]c1=O` the figure was 11.1 µM; with `COc1cc(/C=N/NC(=S)Nc2cccc(Cl)c2C)ccc1OCC(=O)N1CC(C)OC(C)C1` (stereo not drawn), > 38 µM (inactive); with `C=CCn1c(NC(=O)c2ccc(Br)o2)c(S(=O)(=O)c2ccccc2)c2nc3ccccc3nc21`, > 38 µM (inactive).
For `Cc1nnc(NC(=O)c2nc(S(=O)(=O)Cc3ccccc3)ncc2Cl)s1`, the AC50 was 26.5 µM.
Next, `O=[N+]([O-])c1c(NCc2ccco2)ccc2nonc12`: > 38 µM (inactive).
With `O=C(CCl)NN=C(c1ccccc1)c1ccccc1` the figure was 6.37 µM.
For `O=C1CCCC(O)=C1C(C#Cc1ccccc1)C1=C(O)CCCC1=O`, the AC50 was 14.7 µM.
As for `Cn1cnc([N+](=O)[O-])c1Oc1ccc2ccccc2c1`, the AC50 is > 38 µM (inactive).
Turning to `O=C(O)COc1cccc(/C=C2/SC(=S)N(Cc3ccccc3)C2=O)c1`, the AC50 is 21.5 µM.
With `Cc1[nH][nH]c(=O)c1C(c1ccc2c(c1)OCO2)c1c(C)[nH][nH]c1=O` the figure was 19 µM; with `O=C(CCl)Nc1c2c(nn1-c1ccccc1)CSC2`, 29.2 µM.
On to `Cn1ccnc1Sc1cc(NCCCO)c([N+](=O)[O-])c2nonc12`, for which the AC50 was > 38 µM (inactive).
Next, `CSc1nc(O)c(Nc2cccc(Cl)c2)c(=O)[nH]1`: > 38 µM (inactive); `CCOC(=O)c1nnc(-c2cccs2)nc1Oc1ccc(Cl)cc1`: > 38 µM (inactive).
With `Cc1nn(CCc2nn[nH]n2)c2nc(-c3ccc(C4CCCCC4)cc3)cc(C(F)(F)F)c12`, the AC50 is 24.6 µM.
With `CCOC(=O)c1c(NC(=O)c2ccco2)n(C2CCCCC2)c2nc3ccccc3nc12` the figure was > 12 µM (inactive).
Next, `Cc1sc(NC(=O)CSC2=NCCS2)nc1-c1ccccc1`: 26.1 µM; `NS(=O)(=O)c1ccc(N=Nc2ccc(=O)[nH]c2O)cc1`: 24.6 µM.
As for `COc1ccc(-c2cc(=O)[nH][nH]2)cc1`, the AC50 was 8.39 µM.
`CCOC1(OCC)C(c2ccc(Cl)cc2)C(C#N)(C#N)C1(OCC)OCC` (stereo not drawn): the AC50 was > 38 µM (inactive).
With `Cc1noc2ncnc(Sc3ccccc3Cl)c12` the figure was > 38 µM (inactive).
With `CC(C)Oc1cccc(C(=O)C2CCCN(C(=O)c3csnn3)C2)c1` (stereo not drawn) the figure was > 38 µM (inactive); with `C/C(CC(=O)Nc1ccccn1)=N\NC(=O)c1ccncc1`, 28.8 µM; with `COc1ccc(C2CC(c3cccs3)=NN2C(=O)CCl)cc1OC` (stereo not drawn), 3.39 µM.
With `C/C(=N\NC(=O)c1ccncc1)c1cc2ccccc2oc1=O` the figure was > 38 µM (inactive); with `c1coc(-c2nnc(-c3ccco3)nn2)c1`, 12.8 µM.
